Data: PMC6338741 (Nature Communications, 2019)

Columns and labels:
E. faecium W54 [1] = test: Levodopa decarboxylation by stationary batch cultures co-incubated with human DOPA decarboxylase inhibitors; conditions: E. faecium W54, OD600 ~2.0, stationary phase, 15 min, 100 µM levodopa, equimolar or 21.7 µM carbidopa
TDCEFM = TDCEFM (Enterococcus faecium, UniProt Q3Y2S5); test: IC50 curves with carbidopa as inhibitor, levodopa as substrate; assay type: biochemical, Enterococcus faecium W54
[2] = molecular target: T1, human DOPA decarboxylase (DDC) (Homo sapiens, UniProt P20711); test: as above; assay type: biochemical
T1 construct: 6xHis; host or cells: Escherichia coli BL21 (DE3)
T1 sequence (P20711 1-480): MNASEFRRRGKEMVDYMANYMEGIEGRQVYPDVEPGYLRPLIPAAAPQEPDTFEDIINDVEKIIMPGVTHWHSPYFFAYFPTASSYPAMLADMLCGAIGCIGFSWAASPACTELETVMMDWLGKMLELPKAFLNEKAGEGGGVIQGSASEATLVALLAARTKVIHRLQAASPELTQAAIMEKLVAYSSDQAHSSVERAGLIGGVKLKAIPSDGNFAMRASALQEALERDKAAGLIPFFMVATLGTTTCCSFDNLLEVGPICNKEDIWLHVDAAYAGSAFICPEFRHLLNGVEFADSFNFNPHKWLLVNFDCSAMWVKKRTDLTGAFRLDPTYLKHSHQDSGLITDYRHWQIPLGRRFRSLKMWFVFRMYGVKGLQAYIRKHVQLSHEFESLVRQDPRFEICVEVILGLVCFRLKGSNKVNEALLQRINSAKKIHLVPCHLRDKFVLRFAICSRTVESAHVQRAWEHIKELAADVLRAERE

TDCEFS = molecular target: T2, TDCEFS (Enterococcus faecalis, UniProt Q838D6); test: as above; assay type: biochemical, Enterococcus faecalis v583
T2 construct: 6xHis; made in house; host or cells: Escherichia coli BL21 (DE3), plasmid pSK18 (pET15b)

^PTDCEFM = molecular target: T3, ^PTDCEFM (Enterococcus faecium, UniProt A0A481NV25); test: as above; assay type: biochemical, Enterococcus faecium W54
T3 construct: 6xHis; made in house; host or cells: Escherichia coli BL21 (DE3), plasmid pSK22 (pET15b)

E. faecalis v583 [3] = test: Levodopa decarboxylation by stationary batch cultures co-incubated with human DOPA decarboxylase inhibitors; conditions: E. faecalis v583, OD600 ~2.0, stationary phase, 15 min, 100 µM levodopa, equimolar or 21.7 µM carbidopa
[4] = molecular target: bacterial TDCs versus human DOPA decarboxylase; test: Comparison of the inhibitory constants (Ki^TDC/Ki^DDC); assay type: biochemical; conditions: over the three bacterial TDCs
Protocol: (§1) Enzyme kinetics were performed in 200 mM potassium acetate buffer containing 0.1 mM PLP (pyridoxal-5-phosphate, P9255, Sigma, The Netherlands) and 10 nM of enzyme at pH 5 for TDCEFS and TDCEFM, and pH 4.5 for ^PTDCEFM. […] Michaelis–Menten kinetic curves were fitted using GraphPad Prism 7. […] Reactions were stopped with 0.7% HClO4, filtered and analyzed on the HPLC-ED-system described below.

[5] = system: T4, TDCEFS (tyrosine decarboxylase from E. faecalis v583); test: Michaelis–Menten enzyme kinetics of purified tyrosine decarboxylase; assay type: biochemical, Enterococcus faecalis v583
T4 construct: 6xHis; made in house; host or cells: Escherichia coli BL21 (DE3), plasmid pSK18 (pET15b)
Excerpt: (§2) To further characterize the substrate specificity and kinetic parameters of the bacterial TDCs, tdc genes from E. faecalis v583 (TDCEFS) and E. faecium W54 (TDCEFM and ^PTDCEFM) were expressed in Escherichia coli BL21 (DE3) and then purified.
(§3) The human DOPA decarboxylase gene cloned in pET15b was ordered from GenScript (Piscataway, USA) (Supplementary Table 6). TDC-encoding genes from E. faecalis v583 (TDCEFS, accession: EOT87933), E. faecium W54 (TDCEFM, accession: MH358385; ^PTDCEFM, accession: MH358384) were amplified using Phusion High-fidelity DNA polymerase and primers listed in Supplementary Table 8. All amplified genes were cloned in pET15b, resulting in pSK18, pSK11, and pSK22, respectively (Supplementary Table 6). Plasmids were maintained in E. coli DH5α and verified by Sanger sequencing before transformation to E. coli BL21 (DE3). Overnight cultures were diluted 1:50 in fresh LB medium with the appropriate antibiotic and grown to OD600 = 0.7–0.8. Protein translation was induced with 1 mM Isopropyl β-D-1-thiogalactopyranoside (IPTG, 11411446001, Roche Diagnostics) and cultures were incubated overnight at 18 °C. The cells were washed with 1/5th of 1 × ice-cold PBS and stored at −80 °C or directly used for protein isolation. Cell pellets were thawed on ice and resuspended in 1/50th of buffer A (300 mM NaCl; 10 mM imidazole; 50 mM KPO4, pH 7.5) containing 0.2 mg/mL lysozyme (105281, Merck) and 2 µg/mL DNAse (11284932001, Roche Diagnostics), and incubated for at least 10 min on ice before sonication (10 cycles of 15 s with 30 s cooling at 8 microns amplitude) using Soniprep-150 plus (Beun de Ronde, Abcoude, The Netherlands). Cell debris were removed by centrifugation at 20,000 × g for 20 min at 4 °C. The 6 × his-tagged proteins were purified using a nickel-nitrilotriacetic acid (Ni-NTA) agarose matrix (30250, Qiagen). Cell-free extracts were loaded on 0.5 ml Ni-NTA matrixes and incubated on a roller shaker for 2 h at 4 °C. The Ni-NTA matrix was washed three times with 1.5 ml buffer B (300 mM NaCl; 20 mM imidazole; 50 mM KPO4, pH 7.5) before elution with buffer C (300 mM NaCl; 250 mM imidazole; 50 mM KPO4, pH 7.5). Imidazole was removed from purified protein fractions using Amicon Ultra centrifugal filters (UFC505024, Merck) and washed three times and reconstituted in buffer D (50 mM Tris-HCL; 300 mM NaCl; pH 7.5) for TDCEFS, and TDCEFM, buffer E (100 mM KPO4; pH 7.4) for ^PTDCEFM and buffer F (100 mM KPO4; 0.1 mM pyridoxal-5-phosphate; pH 7.4) for DDC. Protein concentrations were measured spectrophotometrically (Nanodrop 2000, Isogen, De Meern, The Netherlands) using the predicted extinction coefficient and molecular weight from ExPASy ProtParam tool (www.web.expasy.org/protparam/).
as §1

[6] = system: T5, ^PTDCEFM (paralogous tyrosine decarboxylase from E. faecium W54); test: Michaelis–Menten enzyme kinetics of purified paralogous tyrosine decarboxylase; assay type: biochemical, Enterococcus faecium W54
T5 construct: 6xHis; made in house; host or cells: Escherichia coli BL21 (DE3), plasmid pSK22 (pET15b)
Excerpt: as §2, §3, §1

[7] = system: TDCEFM (tyrosine decarboxylase from E. faecium W54); test: Michaelis–Menten enzyme kinetics of purified tyrosine decarboxylase; assay type: biochemical, Enterococcus faecium W54
Excerpt: as §2, §3, §1

L. brevis W63 = test: Bacterial cultures incubated anaerobically with levodopa, HPLC-ED; conditions: L. brevis W63, overnight culture, anaerobic, 37 °C, 100 µM levodopa
E. faecium W54 [8] = test: as above; assay type: cell-based, Enterococcus faecium W54; conditions: E. faecium W54 (enterococcal isolates), overnight culture, anaerobic, 37 °C, 100 µM levodopa
E. faecalis v583 [9] = test: as above; assay type: cell-based, Enterococcus faecalis v583; conditions: E. faecalis v583 (enterococcal isolates), overnight culture, anaerobic, 37 °C, 100 µM levodopa
[10] = substrate: N[C@@H](Cc1ccc(O)c(O)c1)C(=O)O; test: purified protein, by the assay type; conditions: other: DDC, levodopa as substrate, as used for Ki
[11] = levodopa as substrate, as used for Ki
[12] = pH 5.0, 10 nM enzyme, substance as substrate
[13] = ^PTDCEFM, pH 4.5, 10 nM enzyme, substance as substrate

T2 sequence (Q838D6 whole entry): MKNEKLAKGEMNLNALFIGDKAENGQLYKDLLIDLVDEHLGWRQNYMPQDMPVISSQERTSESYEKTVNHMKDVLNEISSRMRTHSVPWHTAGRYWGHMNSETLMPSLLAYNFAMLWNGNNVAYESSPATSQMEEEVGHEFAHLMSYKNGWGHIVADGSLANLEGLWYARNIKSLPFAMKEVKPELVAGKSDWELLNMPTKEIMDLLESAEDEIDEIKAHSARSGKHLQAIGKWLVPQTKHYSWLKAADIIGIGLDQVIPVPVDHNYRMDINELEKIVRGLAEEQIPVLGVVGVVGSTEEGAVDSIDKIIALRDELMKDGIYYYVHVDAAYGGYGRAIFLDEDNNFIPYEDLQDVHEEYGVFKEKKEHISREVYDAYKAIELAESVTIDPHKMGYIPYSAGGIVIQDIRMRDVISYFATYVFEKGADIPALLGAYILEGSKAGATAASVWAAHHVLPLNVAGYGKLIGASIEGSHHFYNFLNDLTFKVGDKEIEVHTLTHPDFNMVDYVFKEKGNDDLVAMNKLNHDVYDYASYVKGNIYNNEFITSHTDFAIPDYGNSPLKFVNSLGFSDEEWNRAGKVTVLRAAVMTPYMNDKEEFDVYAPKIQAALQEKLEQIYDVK
Chain of TDCEFM (Q3Y2S5 entry or part of it): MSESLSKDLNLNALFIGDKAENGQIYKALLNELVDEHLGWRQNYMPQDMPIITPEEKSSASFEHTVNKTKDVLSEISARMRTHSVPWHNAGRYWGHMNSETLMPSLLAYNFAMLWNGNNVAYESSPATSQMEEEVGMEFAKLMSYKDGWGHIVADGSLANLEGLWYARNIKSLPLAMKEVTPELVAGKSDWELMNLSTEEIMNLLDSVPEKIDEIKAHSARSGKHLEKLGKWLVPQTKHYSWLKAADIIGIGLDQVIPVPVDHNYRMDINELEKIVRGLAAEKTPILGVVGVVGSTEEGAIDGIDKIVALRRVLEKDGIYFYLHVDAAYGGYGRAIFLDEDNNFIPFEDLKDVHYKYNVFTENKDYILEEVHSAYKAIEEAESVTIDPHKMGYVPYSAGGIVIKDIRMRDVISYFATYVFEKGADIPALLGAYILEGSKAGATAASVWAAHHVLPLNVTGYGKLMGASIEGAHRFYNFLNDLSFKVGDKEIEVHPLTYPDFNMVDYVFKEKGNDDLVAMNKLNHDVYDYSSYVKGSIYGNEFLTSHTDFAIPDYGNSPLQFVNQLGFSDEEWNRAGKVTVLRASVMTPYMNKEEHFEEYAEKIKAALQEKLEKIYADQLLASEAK
T3 sequence (A0A481NV25 whole entry): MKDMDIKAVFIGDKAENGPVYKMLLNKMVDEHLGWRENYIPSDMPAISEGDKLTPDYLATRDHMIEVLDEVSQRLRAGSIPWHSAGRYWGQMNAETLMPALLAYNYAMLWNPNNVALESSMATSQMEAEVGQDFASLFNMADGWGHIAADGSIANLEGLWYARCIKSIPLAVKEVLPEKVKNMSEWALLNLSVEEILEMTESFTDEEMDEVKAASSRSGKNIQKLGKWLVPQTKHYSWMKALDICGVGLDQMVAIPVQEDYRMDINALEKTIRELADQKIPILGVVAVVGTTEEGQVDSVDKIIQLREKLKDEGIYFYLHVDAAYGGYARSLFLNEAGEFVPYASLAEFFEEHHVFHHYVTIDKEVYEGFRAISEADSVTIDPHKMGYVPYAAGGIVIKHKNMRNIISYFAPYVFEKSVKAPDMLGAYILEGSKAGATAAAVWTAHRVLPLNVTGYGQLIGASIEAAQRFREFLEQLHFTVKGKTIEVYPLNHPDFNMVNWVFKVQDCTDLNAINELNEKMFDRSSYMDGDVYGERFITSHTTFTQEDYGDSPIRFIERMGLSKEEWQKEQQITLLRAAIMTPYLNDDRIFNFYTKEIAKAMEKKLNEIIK

## C[C@@](Cc1ccc(O)c(O)c1)(NN)C(=O)O [carbidopa]
E. faecium W54 [1]
  levodopa conversion by batch culture on co-incubation with carbidopa: unaffected
TDCEFM
  IC50: 79.2 µM
TDCEFM; TDCEFM, IC50 curve
  HillSlope: 1.3
TDCEFM; TDCEFM, [S] levodopa 1000 µM
  [IC50]/[s]: 8%
TDCEFM; read-out: Ki=IC50/(1+([S]/Km))
  Ki: 69.6 µM
[2]
  IC50: 0.01 µM
[2]; DDC, IC50 curve
  HillSlope: 1.16
[2]; DDC, [S] levodopa 100 µM
  [IC50]/[s]: 0.01%
[2]; read-out: Ki=IC50/(1+([S]/Km))
  Ki: 0.005 µM
TDCEFS
  IC50: 93.8 µM
TDCEFS; TDCEFS, IC50 curve
  HillSlope: 1.6
TDCEFS; TDCEFS, [S] levodopa 1000 µM
  [IC50]/[s]: 9%
TDCEFS; read-out: Ki=IC50/(1+([S]/Km))
  Ki: 70.6 µM
^PTDCEFM
  IC50: 201 µM
^PTDCEFM; PTDCEFM, IC50 curve
  HillSlope: 1.1
^PTDCEFM; PTDCEFM, [S] levodopa 500 µM
  [IC50]/[s]: 40%
^PTDCEFM; read-out: Ki=IC50/(1+([S]/Km))
  Ki: 95.1 µM
E. faecalis v583 [3]
  levodopa conversion by batch culture on co-incubation with carbidopa: unaffected
[4]
  Ki^TDC/Ki^DDC, times more potent inhibitor of human DOPA decarboxylase than bacterial TDCs: 1.4–1.9 × 10^4

## N[C@@H](Cc1ccc(O)c(O)c1)C(=O)O [levodopa, L-3,4-dihydroxyphenylalanine]
[5]; [11]
  Km: 3040 µM
[5]; [12]
  Kcat: 58.85 ± 2.28 s⁻¹
  Km: 3000 ± 400 µM
  Vmax: 35.3 ± 1.4 µM/min
[6]; PTDCEFM, levodopa as substrate, as used for Ki
  Km: 448 µM
[6]; [13]
  Kcat: 5.707 ± 0.35 s⁻¹
  Km: 400 ± 100 µM
  Vmax: 3.4 ± 0.2 µM/min
[7]; [11]
  Km: 7240 µM
[7]; [12]
  Kcat: 42.48 ± 2.22 s⁻¹
  Km: 7200 ± 800 µM
  Vmax: 25.5 ± 1.3 µM/min

## N[C@@H](Cc1ccc(O)cc1)C(=O)O [tyrosine, L-tyrosine]
[5]; [12]
  Kcat: 116 ± 4.8 s⁻¹
  Km: 600 ± 100 µM
  Vmax: 69.6 ± 2.9 µM/min
L. brevis W63
  conversion of tyrosine and levodopa into tyramine and dopamine by the culture: able to convert
E. faecium W54 [8]
  conversion of tyrosine and levodopa into tyramine and dopamine by the culture: able to convert
[6]; [13]
  Kcat: 7.26 ± 0.32 s⁻¹
  Km: 200 ± 50 µM
  Vmax: 4.4 ± 0.2 µM/min
E. faecalis v583 [9]
  conversion of tyrosine and levodopa into tyramine and dopamine by the culture: able to convert
[7]; [12]
  Kcat: 36.73 ± 4.12 s⁻¹
  Km: 1500 ± 300 µM
  Vmax: 22 ± 2.5 µM/min

B1: human DOPA decarboxylase (DDC) (Homo sapiens) (protein)
chain: MNASEFRRRGKEMVDYMANYMEGIEGRQVYPDVEPGYLRPLIPAAAPQEPDTFEDIINDVEKIIMPGVTHWHSPYFFAYFPTASSYPAMLADMLCGAIGCIGFSWAASPACTELETVMMDWLGKMLELPKAFLNEKAGEGGGVIQGSASEATLVALLAARTKVIHRLQAASPELTQAAIMEKLVAYSSDQAHSSVERAGLIGGVKLKAIPSDGNFAMRASALQEALERDKAAGLIPFFMVATLGTTTCCSFDNLLEVGPICNKEDIWLHVDAAYAGSAFICPEFRHLLNGVEFADSFNFNPHKWLLVNFDCSAMWVKKRTDLTGAFRLDPTYLKHSHQDSGLITDYRHWQIPLGRRFRSLKMWFVFRMYGVKGLQAYIRKHVQLSHEFESLVRQDPRFEICVEVILGLVCFRLKGSNKVNEALLQRINSAKKIHLVPCHLRDKFVLRFAICSRTVESAHVQRAWEHIKELAADVLRAERE
[10]
  Km: 87.3 µM
